Data on ten molecules can be found in ChEMBL document CHEMBL1201862, “PubChem BioAssay data set” (2004).

What all share (assay): DTP human tumour cell line panel, 48 h
For test [1], the system named is BT-549.
The test system of test [2] is CAKI-1.
Test [3] relates to DU-145.
Test [4] has as its system HL-60.
The subject of test [5] is HOP-62.
Test [6] has as its system LOX IMVI.
In test [7] the test system is NCI-H226.
For test [8], the system named is NCI-H23.
The test system of test [9] is NCI/ADR-RES.
Test [10] concerns OVCAR-3.
In test [11] the test system is RPMI-8226.
Test [12] deals with RXF 393.
Test [13] has as its system SF-268.
Test [14] relates to SK-MEL-28.
For test [15], the system named is SK-MEL-5.
Test [16] relates to SK-OV-3.
The test system of test [17] is SNB-19.
In test [18] the test system is T47D.
For test [19], the system named is TK-10.
Test [20] concerns UO-31.

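Where inhibition never reached the appropriate level, the endpoint shown equals the highest concentration tested. Otherwise, values were interpolated linearly from a five-concentration, 48-hour dose response in 96-well plates. Abbreviation: GI50, concentration required for 50% inhibition of growth.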 The source made the active and inactive calls. Cut-off read from the data, not from the text of the source: active = GI50 up to about 1.1 µM and inactive = higher.

With `COc1ccc(CCNCCCC2c3ccccc3-c3ccccc32)cc1OC`, the GI50 is 20.4 µM (inactive) in [1]; 18.4 µM (inactive) in test [2]; 15.5 µM (inactive) in [3]; 12.9 µM (inactive) in test [4]; 16 µM (inactive) in test [5]; 14.2 µM (inactive) in test [6]. Further, the GI50 in test [7] was 15.4 µM (inactive); in [8], 15 µM (inactive); in test [9], 17.2 µM (inactive); in test [10], 16.7 µM (inactive); in test [11], 6.3 µM (inactive); in test [12], 11.3 µM (inactive). Also, the GI50 in [13] was 15.1 µM (inactive); in test [14], 9.44 µM (inactive); in [15] it was 10.6 µM (inactive); in test [16], 18.9 µM (inactive); in test [17], 16.7 µM (inactive); in test [18], 17.1 µM (inactive). Also, the values for the GI50 in test [19] and in test [20] were 14.4 µM (inactive) and 11.6 µM (inactive), respectively.
Consider `COc1cc2cc(C(=O)N3CC(CCl)c4ccccc43)[nH]c2c(OC)c1OC` (stereo not given), for which the GI50 is 28.6 µM (inactive) in [1]; 61.2 µM (inactive) in [2]; 62.1 µM (inactive) in test [3]; 16.3 µM (inactive) in [4]; > 56.2 µM (inactive) in test [5]; 44.8 µM (inactive) in test [6]. Besides, the GI50 was > 100 µM (inactive) in [7]; > 100 µM (inactive) in test [8]; 34.8 µM (inactive) in test [9]; > 100 µM (inactive) in [10]; 10.6 µM (inactive) in test [11]; > 100 µM (inactive) in test [12]. In addition, the GI50 in [13] is > 100 µM (inactive); in test [14] it was > 100 µM (inactive); in [15], 24.7 µM (inactive); in test [16], > 100 µM (inactive); in test [17], > 100 µM (inactive); in test [18], 13.8 µM (inactive). The figures for the GI50 in test [19] and in [20] were > 100 µM (inactive) and 47.4 µM (inactive), respectively.
`Nc1nc(-c2ccccc2)nc2c1[n+]([O-])c1ccccc1[n+]2[O-]`: the GI50 in test [1], in test [2], in test [3], in test [4], in test [5] and in test [6] was > 100 µM (inactive) each time. In addition, the GI50 in test [7], in test [8], in [9], in test [10], in test [11] and in test [12] was > 100 µM (inactive) throughout. The GI50 is > 100 µM (inactive) in test [13]; > 100 µM (inactive) in test [14]; 83.4 µM (inactive) in test [15]; > 100 µM (inactive) in test [16]; > 100 µM (inactive) in test [17]; > 100 µM (inactive) in test [18]. Further, the GI50 in test [19] and in [20] was > 100 µM (inactive) in each case.
On to `CNc1cccc(-c2cc(O)c3cc4c(cc3n2)OCO4)c1`, for which the concentration for 50% growth inhibition (GI50) in test [1] is 0.394 µM (active); in test [2], 0.237 µM (active); in [3], 0.303 µM (active); in test [4], 0.198 µM (active); in [5], 0.409 µM (active); in [6], 0.372 µM (active). For the same molecule, the concentration for 50% growth inhibition (GI50) in [7] was 0.404 µM (active); in test [8], 0.436 µM (active); in [9] it was 0.199 µM (active); in test [10] it was 0.126 µM (active); in [11] it was 0.358 µM (active); in test [12], 0.213 µM (active). Also, the GI50 is 1.05 µM (active) in [13]; 0.859 µM (active) in test [14]; 0.0847 µM (active) in test [15]; 0.256 µM (active) in test [16]; 0.432 µM (active) in test [17]; 52 µM (inactive) in test [18]. Also, the GI50 in test [19] is 1.42 µM (inactive); in test [20], 0.509 µM (active).
For the molecule `CC(C)(C)[Si](C)(C)OC1CCOC1(O)c1ccccn1` (stereo not given), the GI50 was > 100 µM (inactive) in test [1]; > 100 µM (inactive) in test [2]; > 100 µM (inactive) in [3]; 32 µM (inactive) in test [4]; > 100 µM (inactive) in [5]; > 100 µM (inactive) in test [6]. In addition, the GI50 in test [7] is > 100 µM (inactive); in test [8], > 100 µM (inactive); in test [9] it was > 100 µM (inactive); in [10], > 100 µM (inactive); in test [11], 53.7 µM (inactive); in [12] it was > 100 µM (inactive). The GI50 in test [13], in test [14], in [15], in test [16], in test [17] and in test [18] was > 100 µM (inactive) throughout. Besides, the GI50 in test [19] and in test [20] was > 100 µM (inactive) throughout.
For `CC(C)(C)C1(COC(=O)c2ccc(N)cc2)COC1`, the GI50 in [1] was 54.6 µM (inactive); in test [2], > 100 µM (inactive); in test [3] it was > 100 µM (inactive); in test [4] it was 26.3 µM (inactive); in test [5], > 100 µM (inactive); in test [6] it was > 100 µM (inactive). For the same molecule, the GI50 in [7] was > 100 µM (inactive); in test [8], 66.7 µM (inactive); in test [9], 58.3 µM (inactive); in test [10], 26.3 µM (inactive); in test [11], 58.9 µM (inactive); in test [12], 72.4 µM (inactive). Besides, the GI50 in test [13] was > 100 µM (inactive); in test [14], > 100 µM (inactive); in [15], 58.7 µM (inactive); in [16], 58.1 µM (inactive); in [17] it was > 100 µM (inactive); in test [18], 24.4 µM (inactive). Also, the GI50 is > 100 µM (inactive) in test [19] and 56 µM (inactive) in test [20].
Consider `O=C(O)C(C(=O)O)P(=S)(S)c1ccccc1` (stereo not given), for which the GI50 in [1], in test [2], in test [3], in test [4], in test [5] and in [6] was > 100 µM (inactive) in each case. Moreover, the GI50 in test [7], in test [8], in test [9], in [10], in test [11] and in test [12] was > 100 µM (inactive) throughout. For the same molecule, the GI50 in [13] was > 100 µM (inactive); in test [14], > 100 µM (inactive); in [15] it was > 31.6 µM (inactive); in test [16] it was > 100 µM (inactive); in test [17], > 100 µM (inactive); in test [18] it was > 100 µM (inactive). For the same molecule, the GI50 in test [19] and in test [20] was > 100 µM (inactive) each time.
Turning to `CCC(=O)C(c1ccccc1)c1ccccn1` (stereo not given), the GI50 in test [1], in [2], in test [3], in test [4], in test [5] and in test [6] was > 100 µM (inactive) in each case. The GI50 was > 100 µM (inactive) in test [7]; > 100 µM (inactive) in test [8]; > 100 µM (inactive) in test [9]; 13.8 µM (inactive) in [10]; > 100 µM (inactive) in test [11]; > 100 µM (inactive) in test [12]. Further, the GI50 in test [13], in test [14], in test [15], in test [16], in test [17] and in test [18] was > 100 µM (inactive) in each case. The GI50 in test [19] and in test [20] was > 100 µM (inactive) in each case.
As to `Cc1cc(C)n(C(=O)CSc2nnc(SCC(=O)n3nc(C)cc3C)s2)n1`, the GI50 in [1] was > 100 µM (inactive); in test [2], > 100 µM (inactive); in test [3], > 100 µM (inactive); in test [4], > 100 µM (inactive); in [5], 80 µM (inactive); in test [6], > 100 µM (inactive). Besides, the GI50 is > 100 µM (inactive) in [7]; > 100 µM (inactive) in [8]; > 100 µM (inactive) in [9]; 91.8 µM (inactive) in test [10]; > 100 µM (inactive) in test [11]; > 100 µM (inactive) in test [12]. The GI50 in [13], in [14], in [15], in test [16], in test [17] and in [18] was > 100 µM (inactive) throughout. The GI50 in test [19] and in [20] was > 100 µM (inactive) each time.
Consider `Cc1cccc2c1NC(=O)/C2=N\Nc1ccccc1[N+](=O)[O-]`, for which the GI50 in [1] was 20.4 µM (inactive); in test [2], 8.09 µM (inactive); in test [3] it was 17.7 µM (inactive); in test [4], 78.5 µM (inactive); in test [5] it was 3.52 µM (inactive); in [6], 3.64 µM (inactive). The GI50 in [7] is 10.3 µM (inactive); in test [8], 6.67 µM (inactive); in test [9], 4.74 µM (inactive); in [10] it was 8.13 µM (inactive); in test [11] it was 10 µM (inactive); in [12] it was 3.66 µM (inactive). Moreover, the GI50 is 6.04 µM (inactive) in test [13]; 37.3 µM (inactive) in [14]; 6.93 µM (inactive) in test [15]; 4.34 µM (inactive) in test [16]; 30.5 µM (inactive) in test [17]; 8.83 µM (inactive) in test [18]. In addition, the GI50 in test [19] was 6.84 µM (inactive); in [20] it was 3.55 µM (inactive).
